Article PMC7114444 (Virus Research, 2014)
“Also recorded” adds a separate entry of the source.

Assays:
[1] = tested on: NFAT3-GFP; experiment: NFAT-GFP nuclear translocation assay; assay type: cell-based; details: HeLa cells, 40 nM drug, 2 μM ionomycin
[2] = tested on: HCoV-NL63; experiment: HCoV-NL63 replication in Caco-2 cells, qPCR of genome equivalents; assay type: cell-based; details: Human coronavirus NL63, Caco-2, 48 h, read-out: Inhibition of HCoV-NL63 in CaCo-2 EC50
[3] = tested on: HCoV-NL63 N-protein; experiment: Western blot of N protein expression in HCoV-NL63-infected CaCo-2 cells; assay type: cell-based; details: for N-protein expression at 20 μM: 48 h, 20 μM inhibitor
[4] = tested on: lymphocyte; details: lymphocyte proliferation assays, ref Sadeg et al., 1993a, 1993b; cited from earlier work

Row | EC50 [2] | Compound | NFAT-GFP nuclear translocation [1] | N-protein expression at 20 μM [3] | concentration above which N protein is not detectable any more ([3]; discussion statement) | concentration at which N protein decreased ([3]; discussion statement) | immunosuppressive activity relative to CsA activity [4]
1 | 6600 nM | C=CC[C@@H]1/C=C(\C)C[C@H](C)C[C@H](OC)[C@H]2O[C@@](O)(C(=O)C(=O)N3CCCC[C@H]3C(=O)O[C@H](/C(C)=C/[C@@H]3CC[C@@H](O)[C@H](OC)C3)[C@H](C)[C@@H](O)CC1=O)[C@H](C)C[C@@H]2OC [FK506] | NFAT is not transferred to the nucleus; also recorded: remained in the cytoplasm |  |  |  | 
2 | 800 nM | C/C=C/C[C@@H](C)[C@@H](O)[C@H]1C(=O)N[C@@H](CC)C(=O)N(C)[C@H](C)C(=O)N(CC)[C@@H](C(C)C)C(=O)N[C@@H](C(C)C)C(=O)N(C)[C@@H](CC(C)C)C(=O)N[C@@H](C)C(=O)N[C@H](C)C(=O)N(C)[C@@H](CC(C)C)C(=O)N(C)[C@@H](CC(C)C)C(=O)N(C)[C@@H](C(C)C)C(=O)N1C [ALV, Alisporivir] | allow NFAT-GFP translocation to the nucleus; also recorded: NFAT migrated to the nucleus | not detectable any more | above 5 μM | 1.25 µM | 
3 |  | C/C=C/C[C@@H](C)[C@@H](O)[C@H]1C(=O)N[C@@H](C(C)C)C(=O)N(C)CC(=O)N(C)[C@@H](CC(C)C)C(=O)N[C@@H](C(C)C)C(=O)N(C)[C@@H](CC(C)C)C(=O)N[C@@H](C)C(=O)N[C@H](C)C(=O)N(C)[C@@H](CC(C)C)C(=O)N(C)[C@@H](CC(C)C)C(=O)N(C)[C@@H](C(C)C)C(=O)N1C [CsD] | NFAT is not transferred to the nucleus; also recorded: showed the same behavior as CsA; also recorded: remained in the cytoplasm |  |  |  | about 10%
4 | 800 nM | C/C=C/C[C@@H](C)[C@@H](O)[C@H]1C(=O)N[C@@H](CC)C(=O)N(C)CC(=O)N(C)[C@@H]([C@@H](C)CC)C(=O)N[C@@H](C(C)C)C(=O)N(C)[C@@H](CC(C)C)C(=O)N[C@@H](C)C(=O)N[C@H](C)C(=O)N(C)[C@@H](CC(C)C)C(=O)N(C)[C@@H](CC(C)C)C(=O)N(C)[C@@H](C(C)C)C(=O)N1C [NIM811] | allow NFAT-GFP translocation to the nucleus; also recorded: NFAT migrated to the nucleus | not detectable any more | above 5 μM |  | 
